Experimental data taken from patent US20230181484A1, “Uses and Formulations of Cannabinoids” (priority 2020, published 2023).
Where two headings read alike, the source gives them in different places.

What was measured:
IL-6 receptor = target: T1, IL-6 receptor (Homo sapiens, UniProt P08887); details: patients with severe SARS-CoV-2 pneumonia, preliminary clinical data; cited from earlier work
T1 construct: host or cells: patients (in vivo)
T1 sequence (P08887 20-468): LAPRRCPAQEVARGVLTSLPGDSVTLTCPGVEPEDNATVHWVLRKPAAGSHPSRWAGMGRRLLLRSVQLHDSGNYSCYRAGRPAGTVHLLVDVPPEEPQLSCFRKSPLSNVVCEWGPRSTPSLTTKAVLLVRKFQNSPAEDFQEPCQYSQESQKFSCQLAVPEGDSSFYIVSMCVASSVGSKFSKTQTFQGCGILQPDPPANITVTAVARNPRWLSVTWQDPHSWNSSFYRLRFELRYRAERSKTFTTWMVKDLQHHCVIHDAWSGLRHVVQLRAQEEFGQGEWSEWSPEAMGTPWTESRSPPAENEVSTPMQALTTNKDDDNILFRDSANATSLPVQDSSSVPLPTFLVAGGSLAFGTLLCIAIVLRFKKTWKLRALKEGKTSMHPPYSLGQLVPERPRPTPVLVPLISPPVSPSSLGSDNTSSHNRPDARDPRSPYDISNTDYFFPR

[1] = decimal logarithm of n-octanol/water partition coefficient; cited from earlier work
[2] = tested on: activated memory T cell line; details: 1-5 μmol/l, cited from earlier work
human mononuclear cells = details: nanomolar or micromolar concentrations; cited from earlier work
[3] = mice, 120 mg/kg single dose; cited from earlier work
[4] = systemic exposure after i.p. and oral application of CBD in mice (Deiana et al. 2012); assay type: in vivo; details: 20 mg/kg, assuming dose-proportional plasma concentrations
Procedure: A comparative investigation for systemic exposure after i.p. and oral application of CBD in mice and rats has shown that 120 mg/kg as a single dose leads to a maximum plasma concentration of 14,000 ng/ml in mice (S. Deiana et al. (2012). Plasma and brain pharmacokinetic profile of cannabidiol (CBD), cannabidivarine (CBDV), Delta(9)-tetrahydrocannabivarin (THCV) and cannabigerol (CBG) in rats and mice following oral and intraperitoneal administration and CBD action on obsessive-compulsive behaviour. Psychopharmacology (Bed) 219(3): 859-73).

NK, NKT, T and B cells = details: healthy rats, cited from earlier work
[5] = tested on: ischemia-reperfusion-induced kidney injury; details: mice, 10 mg/kg after induced kidney injury; cited from earlier work
CD83 = details: cited from earlier work
microglial cells = details: 1-16 μmol/l; cited from earlier work
[6] = tested on: chemically induced acute hepatitis; details: mice, 25 mg/kg; cited from earlier work
[7] = tested on: LPS-induced acute lung injury; details: mice, 20 mg/kg, 6 h after LPS; cited from earlier work
IL-6 secretion = details: cellular models, majority of cases; cited from earlier work
[8] = tested on: LPS-induced acute lung injury; details: cited from earlier work
human neutrophils = details: cited from earlier work
[9] = mice, 0.3-80 mg/kg i.p. 60 min before LPS

Compound: tocilizumab: humanized monoclonal antibody against the IL-6 receptor
- clinical effect of IL-6 blockade therapy (IL-6 receptor): beneficial effects

Compound: C=C(C)[C@@H]1CCC(C)=C[C@H]1c1c(O)cc(CCCCC)cc1O [CBD, 2-[(1R,6R)-3-methyl-6-(1-methylethenyl)-2-cyclohexen-1-yl]-5-pentyl-1,3-benzenediol]
- log P [1]: about 6.1
- IL-6 production and secretion [2]: decreased
- production of IL-10 [2]: increased
- autoantigen-specific Th17 cell phenotype (IL-17) ([2]; dose-dependently): reduced
- release of pro-inflammatory cytokines (human mononuclear cells): suppressed
- maximum plasma concentration [3]: 14,000 ng/ml
- target peak exposure [4]: 2,300 ng/ml
- numbers of NK cells and NKT cells (NK, NKT, T and B cells; 2.5 mg/kg per day): increased
- numbers of NK cells and NKT cells (NK, NKT, T and B cells; 5 mg/kg per day): not affected
- number of T cells including T helper cells and cytotoxic T cells and of B cells (NK, NKT, T and B cells; daily 5 mg/kg): significantly reduced
- decreased Treg17 and increased Th17 levels [5]: reversed
- effect on induced kidney injury [5]: renoprotective
- CD83 dendritic cell activation marker (CD83; dendritic cells derived from healthy individuals): not
- CD83 dendritic cell activation marker (CD83; dendritic cells derived from individuals with HIV infection): suppresses
- apoptosis in microglial cells (microglial cells): induces apoptosis
- expression of MDSCs [6]: induces
- pro-inflammatory cytokines such as IL-2, TNF-α and IL-6 [6]: reduction
- leukocyte migration (neutrophil, macrophages and lymphocytes) into the lungs [7]: decreased
- mechanical lung function [7]: improved
- myeloperoxidase activity in the lung tissue [7]: decreased
- production of proinflammatory cytokines/chemokines [7]: reduced
- vascular permeability [7]: reduced
- effective concentration, suppressive effect on IL-6 secretion (IL-6 secretion): ~5 µM
- number of leukocytes including macrophages and neutrophils in bronchoalveolar lavage fluid ([8]; mice, 20 mg/kg, after LPS-induced lung inflammation): decreases
- myeloperoxidase activity [8, 9]: significantly decreased
- pro-inflammatory cytokine production including TNF-α and IL-6 [8, 9]: significantly decreased
- total leukocytes migration [8, 9]: significantly decreased
- vascular permeability [8, 9]: significantly decreased
- dose at which effects reached a nearly maximum extent ([8]; prophylactic application, i.p.): 20 mg/kg
- migration of human neutrophils (human neutrophils): inhibits
